The record followed here is patent US20050070510A1, “Substituted tetracycline compounds as synergistic antifungal agents” (Paratek Pharmaceuticals, Inc., priority 2001, published 2005).

For this data set, the system named is COS-1 cells. Nature of the data set: In vitro mammalian cytotoxicity assay (Resazurin). Background: Alamar Blue is a resazurin reagent that responds to reducing activity.
With `CN(C)c1ccc(-c2cc(CN)c(O)c3c2C[C@@]2(N)C[C@@]4(N)[C@H](N(C)C)C(O)=C(C(N)=O)C(=O)[C@@]4(C#N)C(O)=C2C3=O)cc1` [QN], the “In Vitro Cytotoxicity” value is “* (toxicities greater than >25 μg/ml are represented by *)”.
Turning to `CN(C)c1ccc(-c2cc(C#CC3=CCCCC3)c(O)c3c2C[C@@]2(N)C[C@@]4(N)[C@H](N(C)C)C(O)=C(C(N)=O)C(=O)[C@@]4(C#N)C(O)=C2C3=O)cc1` [QO], the “In Vitro Cytotoxicity” value is recorded as “** (toxicities less than 25 μg/mL are represented by **)”.
`CC(=O)c1ccc(-c2ccc3c(c2O)C(=O)C2=C(O)[C@]4(C#N)C(=O)C(C(N)=O)=C(O)[C@@H](N(C)C)[C@]4(N)[C@@H](O)[C@]2(N)[C@H]3N)cc1` [QP]: the “In Vitro Cytotoxicity” value is recorded as “** (toxicities less than 25 μg/mL are represented by **)”.
As to `CCOc1ccc(-c2ccc(O)c3c2C[C@@]2(N)C[C@@]4(N)C(N(C)C)C(O)=C(C(N)=O)C(=O)[C@@]4(C#N)C(O)=C2C3=O)cc1CNC(=O)C(F)(F)F` (stereo partly shown) [QQ], the “In Vitro Cytotoxicity” value was “* (toxicities greater than >25 μg/ml are represented by *)”.
Consider `COc1ccc(C(=O)Nc2ccc(-c3ccc(O)c4c3C[C@@]3(N)C[C@@]5(N)C(N(C)C)C(O)=C(C(N)=O)C(=O)[C@@]5(C#N)C(O)=C3C4=O)cc2)cc1` (stereo partly shown) [QR], for which the “In Vitro Cytotoxicity” value is listed as “** (toxicities less than 25 μg/mL are represented by **)”.
The same measure for `COC(=O)C(CO)NC(=O)c1cccc(-c2ccc(O)c3c2C[C@@]2(N)C[C@@]4(N)C(N(C)C)C(O)=C(C(N)=O)C(=O)[C@@]4(C#N)C(O)=C2C3=O)c1` (stereo partly shown) [QT]: “** (toxicities less than 25 μg/mL are represented by **)”; for `COc1ccc(-c2ccc(O)c3c2C[C@@]2(N)C[C@@]4(N)C(N(C)C)C(O)=C(C(N)=O)C(=O)[C@@]4(C#N)C(O)=C2C3=O)cc1C=O` (stereo partly shown) [QV]: “** (toxicities less than 25 μg/mL are represented by **)”.
For `CCC(CC)CCc1ccc(O)c2c1C[C@@]1(N)C[C@@]3(N)C(N(C)C)C(O)=C(C(N)=O)C(=O)[C@@]3(C#N)C(O)=C1C2=O` (stereo partly shown) [QX], the “In Vitro Cytotoxicity” value is given as “** (toxicities less than 25 μg/mL are represented by **)”.
As for `CNNC(=O)c1cccc(-c2ccc(O)c3c2C[C@@]2(N)C[C@@]4(N)C(N(C)C)C(O)=C(C(N)=O)C(=O)[C@@]4(C#N)C(O)=C2C3=O)c1` (stereo partly shown) [QY], the “In Vitro Cytotoxicity” value is on record as “* (toxicities greater than >25 μg/ml are represented by *)”.
As to `CCc1cc(N(C)C)c2c(c1O)C(=O)C1=C(O)[C@]3(C#N)C(=O)C(C(N)=O)=C(O)[C@@H](N(C)C)[C@]3(N)C[C@]1(N)C2` [QZ], the “In Vitro Cytotoxicity” value is “* (toxicities greater than >25 μg/ml are represented by *)”.
As for `CO/N=C(/C)c1cc(C(C)(C)C)c(O)c2c1C[C@@]1(N)C[C@@]3(N)[C@H](N(C)C)C(O)=C(C(N)=O)C(=O)[C@@]3(C#N)C(O)=C1C2=O` [RA], the “In Vitro Cytotoxicity” value is given as “** (toxicities less than 25 μg/mL are represented by **)”.
In the case of `CN(C)c1ccc(-c2cc(N)c(O)c3c2C[C@@]2(N)C[C@@]4(N)C(N(C)C)C(O)=C(C(N)=O)C(=O)[C@@]4(C#N)C(O)=C2C3=O)cc1` (stereo partly shown) [RB] it was “* (toxicities greater than >25 μg/ml are represented by *)”; in that of `CN(C)[C@@H]1C(O)=C(C(N)=O)C(=O)[C@@]2(C#N)C(O)=C3C(=O)c4c(O)c(C(C)(C)C)cc(CN)c4C[C@@]3(N)C[C@@]12N` [RC], “* (toxicities greater than >25 μg/ml are represented by *)”; in that of `CN(C)c1ccc(-c2cc([N+](=O)O)c(O)c3c2C[C@@]2(N)C[C@@]4(N)C(N(C)C)C(O)=C(C(N)=O)C(=O)[C@@]4(C#N)C(O)=C2C3=O)cc1` (stereo partly shown) [RE], “** (toxicities less than 25 μg/mL are represented by **)”.
For `CN(C)[C@@H]1C(O)=C(C(N)=O)C(=O)[C@@]2(C#N)C(O)=C3C(=O)c4c(ccc(CC(=O)c5ccno5)c4O)C[C@@]3(N)C[C@@]12N` [RF], the “In Vitro Cytotoxicity” value is reported as “* (toxicities greater than >25 μg/ml are represented by *)”.
`COC(=O)c1cc(NC(=O)c2ccno2)cc(-c2ccc(O)c3c2C[C@@]2(N)C[C@@]4(N)C(N(C)C)C(O)=C(C(N)=O)C(=O)[C@@]4(C#N)C(O)=C2C3=O)c1` (stereo partly shown) [RG]: the “In Vitro Cytotoxicity” value is on record as “* (toxicities greater than >25 μg/ml are represented by *)”.
Regarding `CN(C)C1C(O)=C(C(N)=O)C(=O)[C@@]2(C#N)C(O)=C3C(=O)c4c(O)ccc(-c5ccc(NC(=O)c6ccno6)cc5)c4C[C@@]3(N)C[C@@]12N` (stereo partly shown) [RH], the “In Vitro Cytotoxicity” value is “* (toxicities greater than >25 μg/ml are represented by *)”.
Consider `Cc1noc(C)c1S(=O)(=O)Nc1ccc2c(c1O)C(=O)C1=C(O)[C@]3(C#N)C(=O)C(C(N)=O)=C(O)[C@@H](N(C)C)[C@]3(N)C[C@]1(N)C2` [RI], for which the “In Vitro Cytotoxicity” value was “** (toxicities less than 25 μg/mL are represented by **)”.
In the case of `CCc1cc(C(C)=O)c(O)c2c1C[C@@]1(N)C[C@@]3(N)[C@H](N(C)C)C(O)=C(C(N)=O)C(=O)[C@@]3(C#N)C(O)=C1C2=O` [RJ] it was “** (toxicities less than 25 μg/mL are represented by **)”; in that of `CCc1cc(CNCC(C)C)c(O)c2c1C[C@@]1(N)C[C@@]3(N)[C@H](N(C)C)C(O)=C(C(N)=O)C(=O)[C@@]3(C#N)C(O)=C1C2=O` [RK], “* (toxicities greater than >25 μg/ml are represented by *)”.
In the case of `CN(C)[C@@H]1C(O)=C(C(N)=O)C(=O)[C@@]2(C#N)C(O)=C3C(=O)c4c(O)c(CNC(=O)C5CC5)cc(-c5ccc(C(C)(C)C)cc5)c4C[C@@]3(N)C[C@@]12N` [RM] it was “** (toxicities less than 25 μg/mL are represented by **)”; in that of `CC(C)CC(Cc1ccc(O)c2c1C[C@@]1(N)C[C@@]3(N)[C@H](N(C)C)C(O)=C(C(N)=O)C(=O)[C@@]3(C#N)C(O)=C1C2=O)CC(C)C` [RN], “** (toxicities less than 25 μg/mL are represented by **)”; in that of `CN(C)[C@@H]1C(O)=C(C(N)=O)C(=O)[C@@]2(C#N)C(O)=C3C(=O)c4c(O)c(CN)cc(-c5ccccc5)c4C[C@@]3(N)C[C@@]12N` [RO], “* (toxicities greater than >25 μg/ml are represented by *)”.
With `CN(C)[C@@H]1C(O)=C(C(N)=O)C(=O)[C@@]2(C#N)C(O)=C3C(=O)c4c(ccc(CNCC(C)(C)C)c4O)[C@H](N)[C@@]3(N)[C@H](O)[C@@]12N` [RP], the “In Vitro Cytotoxicity” value was “* (toxicities greater than >25 μg/ml are represented by *)”.
In the case of `CC(C)CNCc1ccc2c(c1O)C(=O)C1=C(O)[C@]3(C#N)C(=O)C(C(N)=O)=C(O)[C@@H](N(C)C)[C@]3(N)[C@@H](O)[C@]1(N)[C@H]2N` [RQ], the “In Vitro Cytotoxicity” value was “* (toxicities greater than >25 μg/ml are represented by *)”.
Take `CN(C)[C@@H]1C(O)=C(C(N)=O)C(=O)[C@@]2(C#N)C(O)=C3C(=O)c4c(ccc(NC5CCC(Cc6ccccc6)CC5)c4O)[C@H](N)[C@@]3(N)[C@H](O)[C@@]12N` (stereo partly shown) [RS]: the “In Vitro Cytotoxicity” value was “* (toxicities greater than >25 μg/ml are represented by *)”.
On to `COc1ccc(-c2ccc(O)c3c2C[C@@]2(N)C[C@@]4(N)[C@H](N(C)C)C(O)=C(C(N)=O)C(=O)[C@@]4(C#N)C(O)=C2C3=O)c(OC)c1OC` [RT], for which the “In Vitro Cytotoxicity” value was “** (toxicities less than 25 μg/mL are represented by **)”.
Take `COC(=O)c1ccc(O)c2c1C[C@@]1(N)C[C@@]3(N)[C@H](N(C)C)C(O)=C(C(N)=O)C(=O)[C@@]3(C#N)C(O)=C1C2=O` [RV]: the “In Vitro Cytotoxicity” value was “** (toxicities less than 25 μg/mL are represented by **)”.
Take `CN(C)[C@@H]1C(O)=C(C(N)=O)C(=O)[C@@]2(C#N)C(O)=C3C(=O)c4c(ccc(CNC(=O)c5ccccc5)c4O)C[C@@]3(N)C[C@@]12N` [RW]: the “In Vitro Cytotoxicity” value was “* (toxicities greater than >25 μg/ml are represented by *)”.
Turning to `CCCCN(c1ccc2c(c1O)C(=O)C1=C(O)[C@]3(C#N)C(=O)C(C(N)=O)=C(O)[C@@H](N(C)C)[C@]3(N)[C@@H](O)[C@]1(N)[C@H]2N)C1CCN(C)CC1` [RX], the “In Vitro Cytotoxicity” value is on record as “* (toxicities greater than >25 μg/ml are represented by *)”.
For the molecule `CCCCN(c1ccc2c(c1O)C(=O)C1=C(O)[C@]3(C#N)C(=O)C(C(N)=O)=C(O)[C@@H](N(C)C)[C@]3(N)C[C@]1(N)C2)C1CCN(C)CC1` [RY], the “In Vitro Cytotoxicity” value is “* (toxicities greater than >25 μg/ml are represented by *)”.
As for `CN(C)[C@@H]1C(O)=C(C(N)=O)C(=O)[C@@]2(C#N)C(O)=C3C(=O)c4c(O)ccc(NS(C)(=O)=O)c4C[C@@]3(N)C[C@@]12N` [RZ], the “In Vitro Cytotoxicity” value is given as “* (toxicities greater than >25 μg/ml are represented by *)”.
In the case of `CN(C)[C@@H]1C(O)=C(C(N)=O)C(=O)[C@@]2(C#N)C(O)=C3C(=O)c4c(ccc(N5CCCCC5)c4O)[C@H](N)[C@@]3(N)[C@H](O)[C@@]12N` [SA] it was “* (toxicities greater than >25 μg/ml are represented by *)”; in that of `CC(=O)c1cc(F)c(O)c2c1C[C@@]1(N)C[C@@]3(N)[C@H](N(C)C)C(O)=C(C(N)=O)C(=O)[C@@]3(C#N)C(O)=C1C2=O` [SB], “* (toxicities greater than >25 μg/ml are represented by *)”.
With `CNc1ccc(NC(=O)Nc2cc(N(C)C)c3c(c2O)C(=O)C2=C(O)[C@]4(C#N)C(=O)C(C(N)=O)=C(O)[C@@H](N(C)C)[C@]4(N)C[C@]2(N)C3)cc1` [SE], the “In Vitro Cytotoxicity” value is “* (toxicities greater than >25 μg/ml are represented by *)”.
Turning to `COC(CN(Cc1ccc(O)c2c1C[C@@]1(N)C[C@@]3(N)[C@H](N(C)C)C(O)=C(C(N)=O)C(=O)[C@@]3(C#N)C(O)=C1C2=O)CC(OC)OC)OC` [SG], the “In Vitro Cytotoxicity” value is “* (toxicities greater than >25 μg/ml are represented by *)”.
For `CN(C)[C@@H]1C(O)=C(C(N)=O)C(=O)[C@@]2(C#N)C(O)=C3C(=O)c4c(O)ccc(CNCc5cccn5C)c4C[C@@]3(N)C[C@@]12N` [SH], the “In Vitro Cytotoxicity” value is on record as “* (toxicities greater than >25 μg/ml are represented by *)”.
`CN(C)[C@@H]1C(O)=C(C(N)=O)C(=O)[C@@]2(C#N)C(O)=C3C(=O)c4c(O)ccc(CNCc5ccc[nH]5)c4C[C@@]3(N)C[C@@]12N` [SI]: the “In Vitro Cytotoxicity” value is on record as “* (toxicities greater than >25 μg/ml are represented by *)”.
As for `CN(C)[C@@H]1C(O)=C(C(N)=O)C(=O)[C@@]2(C#N)C(O)=C3C(=O)c4c(ccc(NC5CCN(Cc6ccccc6)CC5)c4O)C[C@@]3(N)C[C@@]12N` [SJ], the “In Vitro Cytotoxicity” value was “* (toxicities greater than >25 μg/ml are represented by *)”.
As to `CN(C)c1cc(CNCc2cccn2C)c(O)c2c1C[C@@]1(N)C[C@@]3(N)[C@H](N(C)C)C(O)=C(C(N)=O)C(=O)[C@@]3(C#N)C(O)=C1C2=O` [SK], the “In Vitro Cytotoxicity” value was “* (toxicities greater than >25 μg/ml are represented by *)”.
